Data from patent US11530244B2, “Cyclic polypeptides for PCSK9 inhibition” (priority 2018, dated 2022).
Starred links: 1 amine or outer side, 2 acyl side, 3 side chain; linkers in the order of their positions; H or OH if unused. Positions of bridges follow the written chain, without caps; N, C: chain ends. Non-standard residues stand in square brackets, D forms with d. Residues, ends and D or L forms follow the SMILES beside them. Trp(5-F) = N[C@@H](Cc1c[nH]c2ccc(F)cc12)C(=O)O; NMePhe(4-F) = CN[C@@H](Cc1ccc(F)cc1)C(=O)O; NMeW = CN[C@@H](Cc1c[nH]c2ccccc12)C(=O)O; mXylylene = c1cc(C[*:1])cc(C[*:2])c1; NMeY = CN[C@@H](Cc1ccc(O)cc1)C(=O)O; NMeL = CN[C@@H](CC(C)C)C(=O)O; αMeP = C[C@@]1(C(=O)O)CCCN1; NMeS = CN[C@@H](CO)C(=O)O; NMeA = CN[C@@H](C)C(=O)O; Orn = NCCC[C@H](N)C(=O)O; Nva = CCC[C@H](N)C(=O)O; Mpa = O=C(O)CCS; Sar = CNCC(=O)O

Biological target: human PCSK9 / human LDLR EGFa domain interaction (Homo sapiens (Human), UniProt Q8NBP7)
Sequence (Q8NBP7 153-692): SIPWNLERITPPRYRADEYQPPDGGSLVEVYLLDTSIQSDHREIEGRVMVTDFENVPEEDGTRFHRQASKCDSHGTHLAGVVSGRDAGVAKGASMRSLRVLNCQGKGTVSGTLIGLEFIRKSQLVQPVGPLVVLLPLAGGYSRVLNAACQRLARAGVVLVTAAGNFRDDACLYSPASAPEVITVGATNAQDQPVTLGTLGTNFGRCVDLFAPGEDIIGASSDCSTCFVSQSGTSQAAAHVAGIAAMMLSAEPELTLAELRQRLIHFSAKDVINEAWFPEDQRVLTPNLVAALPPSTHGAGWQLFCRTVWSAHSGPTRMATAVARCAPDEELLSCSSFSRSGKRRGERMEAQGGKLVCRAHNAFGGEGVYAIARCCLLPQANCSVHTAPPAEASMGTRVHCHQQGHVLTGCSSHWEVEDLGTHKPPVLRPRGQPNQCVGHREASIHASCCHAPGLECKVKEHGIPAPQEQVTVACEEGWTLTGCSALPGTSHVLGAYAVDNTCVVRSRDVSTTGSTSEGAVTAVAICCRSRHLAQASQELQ
Sequence (Q8NBP7 31-152 partner): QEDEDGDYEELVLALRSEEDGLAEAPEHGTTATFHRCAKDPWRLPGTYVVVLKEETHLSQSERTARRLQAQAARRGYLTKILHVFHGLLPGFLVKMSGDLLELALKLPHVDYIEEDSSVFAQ
Assay: TR-FRET assay of inhibition of the PCSK9-LDLR protein-protein interaction
Assay type: binding
Settings: TR-FRET, 20 nM human PCSK9, 20 nM human LDLR EGFa domain, 2 hours room temperature; read-out: IC50
Description: A time-resolved fluorescence resonance energy (TR-FRET) assay was used to measure inhibition of the PCSK9-LDLR protein-protein interaction. Briefly, 20 nM avitag-biotinylated human PCSK9 was incubated with 20 nM his-tagged human LDLR EGFa domain in the presence of 5 nM LANCE Ulight Streptavidin (Perkin Elmer) and 5 nM europium-Anti-6×His (Perkin Elmer) for 2 hours covered at room temperature in buffer containing 50 mM HEPES, 150 mM NaCl, 5 mM CaCl2), 0.01% BSA and 0.01% Surfactant P20. Compounds were tested in dose-response and concentrations giving half-maximal inhibition calculated using a 4-parameter fit equation.

| IC50 | SMILES |
| --- | --- |
| 1000 to 12100 nM | C[C@H]1C(=O)N(C)[C@@H](Cc2ccc(O)cc2)C(=O)N2CCC[C@H]2C(=O)N[C@H](C(N)=O)CSCc2cccc(c2)CSCCC(=O)N[C@@H](CCCCN)C(=O)N(C)CC(=O)N(C)[C@@H](Cc2c[nH]c3ccccc23)C(=O)N[C@@H](Cc2c[nH]c3ccccc23)C(=O)N[C@@H](CC(=O)O)C(=O)N1C [Compound 015] ([Mpa]K[Sar][NMeW]WD[NMeA][NMeY]PC-NH2; linker 1-10 via mXylylene) |
| 100 to 1000 nM | C[C@H]1NC(=O)[C@H](Cc2c[nH]c3ccc(F)cc23)NC(=O)[C@H](Cc2c[nH]c3ccc(F)cc23)NC(=O)CNC(=O)[C@H](CCCCN)NC(=O)CCSCc2cccc(c2)CSC[C@@H](C(N)=O)NC(=O)[C@]2(C)CCCN2C(=O)[C@H](Cc2ccc(O)cc2)NC(=O)[C@H](Cc2cnc[nH]2)NC1=O [Compound 032] ([Mpa]KG[Trp(5-F)][Trp(5-F)][dA]HY[αMeP]C-NH2; linker 1-10 via mXylylene) |
| 1000 to 12100 nM | C[C@H]1NC(=O)[C@H](CC(=O)O)NC(=O)[C@H](Cc2c[nH]c3ccc(F)cc23)NC(=O)[C@H](Cc2c[nH]c3ccc(F)cc23)NC(=O)CNC(=O)[C@H](CCCCN)NC(=O)CCSCc2cccc(c2)CSC[C@@H](C(N)=O)NC(=O)[C@]2(C)CCCN2C(=O)[C@H](Cc2ccc(O)cc2)NC1=O [Compound 033] ([Mpa]KG[Trp(5-F)][Trp(5-F)]D[dA]Y[αMeP]C-NH2; linker 1-10 via mXylylene) |
| 100 to 1000 nM | COc1ccc(C[C@@H]2NC(=O)[C@@H](CC(C)C)NC(=O)[C@H](CC(C)C)NC(=O)CCSCc3cccc(c3)CSC[C@@H](C(N)=O)NC(=O)[C@]3(C)CCCN3C(=O)[C@H](Cc3ccc(OC)cc3)NC(=O)[C@H]([C@@H](C)OC)NC(=O)[C@H](CC(C)C)N(C)C(=O)[C@H](Cc3ccc(OC)cc3)NC2=O)cc1 [Compound 037] ([Mpa]L[dL]Y(Me)Y(Me)[NMeL]T(Me)Y(Me)[αMeP]C-NH2; linker 1-10 via mXylylene) |
| 21000 to 50000 nM | CCC[C@H](NC(C)=O)C(=O)N[C@@H](Cc1c[nH]cn1)C(=O)N(C)[C@@H](Cc1ccc(F)cc1)C(=O)N[C@H]1CSCc2cccc(c2)CSC[C@@H](C(N)=O)NC(=O)[C@@H]2CCCN2C(=O)[C@H](Cc2ccc(O)cc2)NC(=O)[C@H](Cc2c[nH]cn2)NC(=O)[C@H](CC(=O)O)NC(=O)[C@H](Cc2c[nH]c3ccc(F)cc23)NC(=O)[C@H](Cc2c[nH]c3ccc(F)cc23)NC(=O)CNC(=O)[C@H](CCCCN)NC1=O [Compound 143] (Ac-[Nva]H[NMePhe(4-F)]CKG[Trp(5-F)][Trp(5-F)]DHYPC-NH2; linker 4-13 via mXylylene) |
| 1000 to 12100 nM | CCC[C@H](NC(C)=O)C(=O)N[C@H](Cc1c[nH]cn1)C(=O)N(C)[C@@H](Cc1ccc(F)cc1)C(=O)N[C@H]1CSCc2cccc(c2)CSC[C@@H](C(N)=O)NC(=O)[C@@H]2CCCN2C(=O)[C@H](Cc2ccc(O)cc2)NC(=O)[C@H](Cc2c[nH]cn2)NC(=O)[C@H](CC(=O)O)NC(=O)[C@H](Cc2c[nH]c3ccc(F)cc23)NC(=O)[C@H](Cc2c[nH]c3ccc(F)cc23)NC(=O)CNC(=O)[C@H](CCCCN)NC1=O [Compound 144] (Ac-[Nva][dH][NMePhe(4-F)]CKG[Trp(5-F)][Trp(5-F)]DHYPC-NH2; linker 4-13 via mXylylene) |
| 1000 to 12100 nM | CCC[C@H](NC(C)=O)C(=O)N(C)[C@@H](CO)C(=O)N[C@@H](CCCCN)C(=O)N[C@H]1CSCc2cccc(c2)CSC[C@@H](C(N)=O)NC(=O)[C@@H]2CCCN2C(=O)[C@H](Cc2ccc(O)cc2)NC(=O)[C@H](Cc2c[nH]cn2)NC(=O)[C@H](CC(=O)O)NC(=O)[C@H](Cc2c[nH]c3ccc(F)cc23)NC(=O)[C@H](Cc2c[nH]c3ccc(F)cc23)NC(=O)CNC(=O)[C@H](CCCCN)NC1=O [Compound 145] (Ac-[Nva][NMeS]KCKG[Trp(5-F)][Trp(5-F)]DHYPC-NH2; linker 4-13 via mXylylene) |
| 0.1 to 100 nM | CC(=O)N[C@@H](Cc1cnc[nH]1)C(=O)N(C)[C@@H](Cc1ccc(F)cc1)C(=O)N[C@H]1CSCc2cccc(c2)CSC[C@@H](C(N)=O)NC(=O)[C@@H]2CCCN2C(=O)[C@H](Cc2ccc(O)cc2)NC(=O)[C@H](Cc2cnc[nH]2)NC(=O)[C@H](CC(=O)O)NC(=O)[C@H](Cc2c[nH]c3ccc(F)cc23)NC(=O)[C@H](Cc2c[nH]c3ccc(F)cc23)NC(=O)CNC(=O)[C@H](CCCCN)NC1=O [Compound 146] (Ac-H[NMePhe(4-F)]CKG[Trp(5-F)][Trp(5-F)]DHYPC-NH2; linker 3-12 via mXylylene) |
| 100 to 1000 nM | CC(=O)N(C)[C@@H](Cc1ccc(F)cc1)C(=O)N[C@H]1CSCc2cccc(c2)CSC[C@@H](C(N)=O)NC(=O)[C@@H]2CCCN2C(=O)[C@H](Cc2ccc(O)cc2)NC(=O)[C@H](Cc2cnc[nH]2)NC(=O)[C@H](CC(=O)O)NC(=O)[C@H](Cc2c[nH]c3ccc(F)cc23)NC(=O)[C@H](Cc2c[nH]c3ccc(F)cc23)NC(=O)CNC(=O)[C@H](CCCCN)NC1=O [Compound 147] (Ac-[NMePhe(4-F)]CKG[Trp(5-F)][Trp(5-F)]DHYPC-NH2; linker 2-11 via mXylylene) |
| 100 to 1000 nM | CC(=O)N[C@H]1CSCc2cccc(c2)CSC[C@@H](C(N)=O)NC(=O)[C@@H]2CCCN2C(=O)[C@H](Cc2ccc(O)cc2)NC(=O)[C@H](Cc2cnc[nH]2)NC(=O)[C@H](CC(=O)O)NC(=O)[C@H](Cc2c[nH]c3ccc(F)cc23)NC(=O)[C@H](Cc2c[nH]c3ccc(F)cc23)NC(=O)CNC(=O)[C@H](CCCCN)NC1=O [Compound 148] (Ac-CKG[Trp(5-F)][Trp(5-F)]DHYPC-NH2; linker 1-10 via mXylylene) |
| 1000 to 12100 nM | NCCCC[C@@H]1NC(=O)CCCCn2cc(nn2)CCC[C@@H](C(N)=O)NC(=O)[C@@H]2CCCN2C(=O)[C@H](Cc2ccc(O)cc2)NC(=O)[C@H](Cc2c[nH]cn2)NC(=O)[C@H](CC(=O)O)NC(=O)[C@H](Cc2c[nH]c3ccc(F)cc23)NC(=O)[C@H](Cc2c[nH]c3ccc(F)cc23)NC(=O)CNC1=O [Compound 153] |
| 1000 to 12100 nM | C[C@@H]1NC(=O)[C@H](CCCCN)NC(=O)CCSCc2cccc(c2)CSC[C@@H](C(N)=O)NC(=O)[C@@H]2CCCN2C(=O)[C@H](Cc2ccc(O)cc2)NC(=O)[C@H](Cc2cnc[nH]2)NC(=O)[C@H](CC(=O)O)NC(=O)[C@H](Cc2c[nH]c3ccc(F)cc23)NC(=O)[C@H](Cc2c[nH]c3ccc(F)cc23)NC1=O [Compound 156] ([Mpa]KA[Trp(5-F)][Trp(5-F)]DHYPC-NH2; linker 1-10 via mXylylene) |
| 21000 to 50000 nM | NCCCC[C@@H]1NC(=O)CCSCc2cccc(c2)CSC[C@@H](C(N)=O)NC(=O)[C@@H]2CCCN2C(=O)[C@H](Cc2ccc(O)cc2)NC(=O)[C@@H](Cc2cnc[nH]2)NC(=O)[C@H](CC(=O)O)NC(=O)[C@H](Cc2c[nH]c3ccc(F)cc23)NC(=O)[C@H](Cc2c[nH]c3ccc(F)cc23)NC(=O)CNC1=O [Compound 163] ([Mpa]KG[Trp(5-F)][Trp(5-F)]D[dH]YPC-NH2; linker 1-10 via mXylylene) |
| 21000 to 50000 nM | NCCCC[C@@H]1NC(=O)CCSCc2cccc(c2)CSC[C@@H](C(N)=O)NC(=O)[C@@H]2CCCN2C(=O)[C@@H](Cc2ccc(O)cc2)NC(=O)[C@H](Cc2cnc[nH]2)NC(=O)[C@H](CC(=O)O)NC(=O)[C@H](Cc2c[nH]c3ccc(F)cc23)NC(=O)[C@H](Cc2c[nH]c3ccc(F)cc23)NC(=O)CNC1=O [Compound 164] ([Mpa]KG[Trp(5-F)][Trp(5-F)]DH[dY]PC-NH2; linker 1-10 via mXylylene) |
| 21000 to 50000 nM | CC(=O)N[C@H]1CSCc2cccc(c2)CSC[C@@H](C(N)=O)NC(=O)[C@@H]2CCCN2C(=O)[C@H](Cc2ccc(O)cc2)NC(=O)[C@H](Cc2c[nH]cn2)NC(=O)[C@H](CC(=O)O)NC(=O)[C@H](Cc2c[nH]c3ccc(F)cc23)NC(=O)[C@H](Cc2c[nH]c3ccccc23)NC(=O)CNC(=O)[C@H](CCCCN)NC1=O [Compound 176] (Ac-CKGW[Trp(5-F)]DHYPC-NH2; linker 1-10 via mXylylene) |
| 21000 to 50000 nM | CC(=O)N[C@H]1CSCc2cccc(c2)CSC[C@@H](C(N)=O)NC(=O)[C@@H]2CCCN2C(=O)[C@H](Cc2ccc(O)cc2)NC(=O)[C@H](Cc2cnc[nH]2)NC(=O)[C@H](CC(=O)O)NC(=O)[C@H](Cc2c[nH]c3ccccc23)NC(=O)[C@H](Cc2c[nH]c3ccc(F)cc23)NC(=O)CNC(=O)[C@H](CCCCN)NC1=O [Compound 177] (Ac-CKG[Trp(5-F)]WDHYPC-NH2; linker 1-10 via mXylylene) |
| 1000 to 12100 nM | CC(=O)N[C@H]1CCC(=O)NCCC[C@@H](C(N)=O)NC(=O)[C@@H]2CCCN2C(=O)[C@H](Cc2ccc(O)cc2)NC(=O)[C@H](Cc2c[nH]cn2)NC(=O)[C@H](CC(=O)O)NC(=O)[C@H](Cc2c[nH]c3ccc(F)cc23)NC(=O)[C@H](Cc2c[nH]c3ccc(F)cc23)NC(=O)CNC(=O)[C@H](CCCCN)NC1=O [Compound 179] (Ac-EKG[Trp(5-F)][Trp(5-F)]DHYP[Orn]-NH2; lactam 1-10) |
| 0.1 to 100 nM | NCCCC[C@@H]1NC(=O)CCCCn2cc(nn2)CC[C@@H](C(N)=O)NC(=O)[C@@H]2CCCN2C(=O)[C@H](Cc2ccc(O)cc2)NC(=O)[C@H](Cc2c[nH]cn2)NC(=O)[C@H](CC(=O)O)NC(=O)[C@H](Cc2c[nH]c3ccc(F)cc23)NC(=O)[C@H](Cc2c[nH]c3ccc(F)cc23)NC(=O)CNC1=O [Compound 185] |
| 100 to 1000 nM | NCCCC[C@@H]1NC(=O)CCCn2cc(nn2)CC[C@@H](C(N)=O)NC(=O)[C@@H]2CCCN2C(=O)[C@H](Cc2ccc(O)cc2)NC(=O)[C@H](Cc2c[nH]cn2)NC(=O)[C@H](CC(=O)O)NC(=O)[C@H](Cc2c[nH]c3ccc(F)cc23)NC(=O)[C@H](Cc2c[nH]c3ccc(F)cc23)NC(=O)CNC1=O [Compound 186] |

| SMILES | IC50 |
| --- | --- |
| NCCCC[C@@H]1NC(=O)CCCCCn2cc(nn2)CCC[C@@H](C(N)=O)NC(=O)[C@@H]2CCCN2C(=O)[C@H](Cc2ccc(O)cc2)NC(=O)[C@H](Cc2c[nH]cn2)NC(=O)[C@H](CC(=O)O)NC(=O)[C@H](Cc2c[nH]c3ccc(F)cc23)NC(=O)[C@H](Cc2c[nH]c3ccc(F)cc23)NC(=O)CNC1=O [Compound 154] | 1000 to 12100 nM |
